Laboratory results as given in publication PMC3740496, “Synthesis and biological activities of the respiratory chain inhibitor aurachin D and new ring versus chain analogues” (Beilstein Journal of Organic Chemistry, 2013).
In brackets after ≈: the same amount, converted by molar mass.

Legend:
Plasmodium falciparum = system: Plasmodium falciparum; design: method as in PMID 18922036; conditions: cited from earlier work
[1] = system: HCT-116 human colon carcinoma cells; assay: Cytotoxicity, growth inhibition (MTT); assay type: cell-based; conditions: Homo sapiens, HCT-116, 120 h, read-out: IC50: half inhibitory concentration, HCT-116
Method: (§1) The cytotoxic activity of aurachin D (4) and analogues 9–11 and 17–19 was evaluated in growth inhibition experiments on mammalian cell lines (Table 2). After 5 days treatment, half inhibitory concentrations (IC50) were determined for human HCT-116 colon carcinoma and human K562 myelogenous leukemia cells. […]
(§2) was further incubated for 1.5 h. The medium was then discarded and 100 µL 2-propanol/10 N HCl (250:1) was added in order to dissolve formazan granules. The absorbance at 570 nm was measured using a microplate reader (EL808, Bio-Tek Instruments Inc.) and cell viability was expressed as a percentage relative to the respective solvent control. […]

[2] = system: K562 myelogenous leukemia cells; assay: Cytotoxicity, growth inhibition (MTT); assay type: cell-based; conditions: Homo sapiens, K562, 120 h; 5 days treatment; triplicate, mean ±SD; read-out: IC50: half inhibitory concentration, K562
Method: as §1, §2

[3] = system: Plasmodium falciparum FcB1 (chloroquine-resistant); assay: In vitro antiplasmodial assay ([3H]-hypoxanthine incorporation); assay type: cell-based; conditions: Plasmodium falciparum, FCB1; triplicate (except compound 24), mean ±SD; read-out: IC50 P. falciparum FcB1
Method: In vitro antiplasmodial assays: The chloroquine-resistant strain FcB1/Colombia of Plasmodium falciparum was maintained in vitro on human erythrocytes in RPMI 1640 medium supplemented by 8% (v/v) heat-inactivated human serum, at 37 °C, under an atmosphere of 3% CO2, 6% O2, and 91% N2. In vitro drug susceptibility assays was measured by [3H]-hypoxanthine incorporation as described. Drugs were prepared in DMSO at a 10 mg/mL concentration. Compounds were serially diluted two-fold with 100 µL culture medium in 96-well plates. Asynchronous parasite cultures (100 µL, 1% parasitaemia and 1% final hematocrite) were then added to each well and incubated for 24 h at 37 °C prior to the addition of 0.5 µCi of [3H]- hypoxanthine (GE Healthcare, France, 1 to 5 Ci·mmol/mL) per well. After a further incubation of 24 h, plates were frozen and thawed. Cell lysates were then collected onto glass-fiber filters and counted in a liquid scintillation spectrometer. The growth inhibition for each drug concentration was determined by comparison of the radioactivity incorporated in the treated culture with that in the control culture maintained on the same plate. The concentration causing 50% growth inhibition (IC50) was obtained from the drug concentration–response curve and the results were expressed as the mean values ± standard deviations determined from several […]
independent experiments. Chloroquine diphosphate (Sigma–Aldrich) was used as antimalarial drug control. […]

[4] = system: Trypanosoma brucei gambiense strain Feo bloodstream forms; assay: Antitrypanosomal assay (resazurin); assay type: cell-based; conditions: Trypanosoma brucei, GAMBIENSE; 72 h incubation; read-out: IC50 T. brucei gambiense
Method: page 10: independent experiments. Chloroquine diphosphate (Sigma–Aldrich) was used as antimalarial drug control. Antitrypanosomal activities: Bloodstream forms of Trypanosoma brucei gambiense strain Feo were cultured in HMI9 medium supplemented with 10% FCS at 37 °C under an atmosphere of 5% CO2. Antitrypanosomal assays were performed as previously described. In all experiments, log-phage cell cultures were harvested by centrifugation at 3,000g and immediately used. Drug assays were based on the conversion of a redox-sensitive dye (resazurin) to a fluorescent product by viable cells. Drug stock solutions were prepared in pure DMSO. […] After a 72 h incubation, resazurin solution was added in each well at the final concentration of 45 µM. Fluorescence was measured at 530 nm excitation and 590 nm emission wavelengths after a further 4 h incubation. Each inhibitor concentration was tested in triplicate. The percentage of inhibition of parasite growth rate was calculated by comparing the fluorescence of parasites maintained in the presence of drug to that in the absence of drug. DMSO was used as a control. IC50s were determined from the dose–response curves with drug concentrations ranging from 100 µM to 50 nM. Pentamidine was used as antitrypanosomal drug control. MIC determination: Indicator strains were obtained from the German Collection of Microorganisms and Cell Cultures (Deutsche Sammlung für Mikroorganismen und Zellkulturen, DSMZ) or were part of our internal strain collection. All microorganisms were handled under standard conditions recommended by the depositor. Overnight S10

Bacillus subtilis DSM10 = assay: MIC determination; assay type: cell-based; conditions: Bacillus subtilis, DSM10; duplicate, mean ±SD
Method: (§3) MIC determination: Indicator strains were obtained from the German Collection of Microorganisms and Cell Cultures (Deutsche Sammlung für Mikroorganismen und Zellkulturen, DSMZ) or were part of our internal strain collection. All microorganisms were handled under standard conditions recommended by the depositor. Overnight […]
(§4) cultures of bacteria were prepared in EBS medium (0.5% casein peptone, 0.5% proteose peptone, 0.1% meat peptone, 0.1% yeast extract; pH 7.0). Yeasts and molds were grown in Myc medium (1% phytone peptone, 1% glucose, 50 mM
(§5) HEPES, pH 7.0). The overnight cultures of microorganisms were diluted to OD600 0.01 (bacteria) or 0.05 (yeasts/molds) in the respective growth medium. Serial dilutions of compounds were prepared as duplicates in sterile 96-well plates. The cell suspension was added and microorganisms were grown overnight on a microplate shaker (900 rpm, 30 °C or 37 °C). Growth inhibition was assessed by measuring the OD600 on a plate reader (POLARstar, BMG Labtech). MIC50 values were determined as averages relative to respective control samples by sigmoidal curve fitting. […]

Escherichia coli (TolC) = assay: MIC determination; assay type: cell-based; conditions: read-out: MIC50 Escherichia coli (TolC)
Method: as §3, §4, §5

[5] = system: Escherichia coli DH5α (wt); assay: MIC determination; assay type: cell-based; conditions: duplicate, mean ±SD
Method: as §3, §4, §5

[6] = system: Klebsiella pneumoniae DSM30104; assay: MIC determination; assay type: cell-based; conditions: duplicate, mean ±SD
Method: as §3, §4, §5

Micrococcus luteus = assay: MIC determination; assay type: cell-based; conditions: duplicate, mean ±SD
Method: as §3, §4, §5

[7] = system: Staphylococcus aureus DSM11822 (MRSA); assay: MIC determination; assay type: cell-based; conditions: duplicate, mean ±SD
Method: as §3, §4, §5

[8] = system: Staphylococcus aureus Newman (MSSA); assay: MIC determination; assay type: cell-based; conditions: duplicate, mean ±SD
Method: as §3, §4, §5

[9] = system: Vero cells (nontumor cells); assay: Cytotoxicity on Vero cells (MTT); assay type: cell-based; conditions: 48 h incubation
Method: was further incubated for 1.5 h. The medium was then discarded and 100 µL 2-propanol/10 N HCl (250:1) was added in order to dissolve formazan granules. The absorbance at 570 nm was measured using a microplate reader (EL808, Bio-Tek Instruments Inc.) and cell viability was expressed as a percentage relative to the respective solvent control. VERO cells: VERO cells were seeded into 96-well microplates at 10^5 cells per mL in RPMI supplemented with 10% foetal calf serum.
After 24 h, the cells were washed and two microliters of two-fold serial dilutions of each compound (10 mg/mL) was added to 100 μL of medium. Cells were then incubated for 48 h at 37 ° C under a 5% CO2 atmosphere. At the end of incubation, 20 µL of MTT solution (5 mg/mL) was added to each well and further incubated for 4 h at 37 °C to allow the formation of formazan. The crystals of formazan were then dissolved with 100 µL of a freshly prepared solution of sodium dodecyl sulfate (SDS) 10% (15 mL) and HCl 1 N (150 µL). The optical density of each well was measured at 595 nm using a multiwell plate reader. The 50% inhibition concentration was then determined by curve fitting.
MMP assay: Human U-2 OS osteosarcoma cells (HTB-96) were obtained from the American Type Culture Collection (ATCC) and were cultured under the conditions recommended by the depositor. Cells from actively growing cultures were harvested and seeded at 8 × 10^3 cells per well in 96-well imaging plates (BD Falcon). After 1 d cells reached approximately 60% confluency and were treated with aurachin analogues at the assigned concentrations for 16 h. In addition, cells were stimulated with 1 µM FCCP [carbonyl cyanide 4-(trifluoromethoxy)phenylhydrazone] as a positive control 1 h prior to the measurement. For labeling, cells were washed twice with assay buffer ([…], 5.4 mM KCl, 2 mM MgCl2, 10 mM glucose, 2 mM CaCl2, 10 mM HEPES; pH 7.35) and 100 µL of a staining solution (50 nM TMRM,

Plasmodium = system: Plasmodium; design: method as in PMID 15215101; conditions: read-out: antiplasmodial IC50; cited from earlier work

Which “IC50 Plasmodium falciparum” value (Plasmodium falciparum) does the source give for `CC(C)=CCC/C(C)=C/CC/C(C)=C/Cc1c(O)c(C)[n+]([O-])c2ccccc12` [aurachin B] here?
Its value is “around 20 ng/mL”.

Which “IC50 Plasmodium falciparum” value (Plasmodium falciparum) does the source give for `CC(C)=CCC/C(C)=C/CC/C(C)=C/Cc1c(C)n(O)c2ccccc2c1=O` [aurachin C] here?
Its value is “around 20 ng/mL”.

What about the “fold higher antiplasmodial activity compared to aurachin D” value (Plasmodium falciparum) of the same compound?
Its value is “approximately 200 fold”.

Which “IC50 Plasmodium falciparum” value (Plasmodium falciparum) does the source give for `CC(C)=CCC/C(C)=C/CC/C(C)=C/Cc1c(C)n2c(=O)[nH]c3cccc(c1=O)c32` [aurachin E] here?
The value was “around 20 ng/mL”.

For `CC(C)=CCc1c(C)[nH]c2ccccc2c1=O` [compound 10], which IC50 [1] is on record?
Its IC50 is > 10 µg/mL.

And the IC50 [2]?
The IC50 was ~10 µg/mL (≈ 44 µM).

And the IC50 [3]?
The IC50 was 0.55 ± 0.16 µg/mL (≈ 2.42 µM).

What about the IC50 [4] of the same compound?
Its IC50 is 5.8 µg/mL (≈ 25.5 µM).

What about the MIC50 (Bacillus subtilis DSM10) of the same compound?
The MIC50 was 0.22 ± 0.06 µg/mL (≈ 0.968 µM).

What about the MIC50 (Escherichia coli (TolC)) of the same compound?
The MIC50 was 6.55 ± 1.36 µg/mL (≈ 28.8 µM).

And the MIC50 [5]?
Its MIC50 is > 64 µg/mL.

And the MIC50 [6]?
The MIC50 was > 64 µg/mL.

What about the MIC50 (Micrococcus luteus) of the same compound?
Its MIC50 is 14.3 ± 1.29 µg/mL (≈ 63 µM).

And the MIC50 [7]?
The MIC50 was 11.3 ± 1.44 µg/mL (≈ 49.7 µM).

What about the MIC50 [8] of the same compound?
The MIC50 was 9.66 ± 2.39 µg/mL (≈ 42.5 µM).

For `Cc1[nH]c2ccccc2c(=O)c1C` [compound 11], which IC50 [1] is on record?
The IC50 was > 10 µg/mL.

And the IC50 [2]?
Its IC50 is > 10 µg/mL.

What about the IC50 [3] of the same compound?
The IC50 was 2.3 ± 1.4 µg/mL (≈ 13.3 µM).

What about the IC50 [4] of the same compound?
Its IC50 is > 10 µg/mL.

What about the MIC50 (Bacillus subtilis DSM10) of the same compound?
The MIC50 was 49 ± 6.26 µg/mL (≈ 283 µM).

And the MIC50 (Escherichia coli (TolC))?
The MIC50 was > 64 µg/mL.

What about the MIC50 [5] of the same compound?
Its MIC50 is > 64 µg/mL.

And the MIC50 [6]?
Its MIC50 is > 64 µg/mL.

And the MIC50 (Micrococcus luteus)?
Its MIC50 is > 64 µg/mL.

And the MIC50 [7]?
Its MIC50 is > 64 µg/mL.

What about the MIC50 [8] of the same compound?
Its MIC50 is > 64 µg/mL.

For `Cc1c2c(c3ccccc3[n+]1[O-])O[C@H]([C@](C)(O)CCC1OC1(C)C)C2` (stereo partly shown) [compound 22], which IC50 [9] is on record?
The IC50 was > 50 µg/mL.

With `Cc1cc(=O)c2ccccc2[nH]1` [compound 23, 2-methyl-4(1H)-quinolone, reference compound] as the compound, how does the IC50 [3] read?
The IC50 was 7.7 ± 2.5 µg/mL (≈ 48.4 µM).

And the IC50 [4]?
Its IC50 is > 10 µg/mL.

Which IC50 [3] does the source give for `Cc1[nH]c2ccccc2c(=O)c1Br` [compound 24, 3-bromo-2-methyl-4(1H)-quinolone] here?
The IC50 was 1.1 µg/mL (≈ 4.62 µM).

And the IC50 [4]?
The IC50 was 1.7 µg/mL (≈ 7.14 µM).

For `Cc1c(C)n(O)c2ccccc2c1=O` [compound 25, N-hydroxy-2,3-dimethyl-4(1H)-quinolone], which IC50 [3] is on record?
Its IC50 is 2.7 ± 1.3 µg/mL (≈ 14.3 µM).

And the IC50 [4]?
The IC50 was > 10 µg/mL.

For `CC(C)=CCC/C(C)=C/CC/C(C)=C/CO` [farnesol], which IC50 (Plasmodium) is on record?
The IC50 was 64 µM.
